# Data from patent US6274715A, “Tricyclic erythromycin derivatives” (priority 1997, dated 2001).
# Experiments:
# Format in all cases: cell-based
# [1] = system: STAPHYLOCOCCUS AUREUS CMX 553; assay: In vitro antibacterial activity, MIC, BHI agar dilution; conditions: S. aureus CMX 553, unit assumed
# ESCHERICHIA COLI KNK 437 = conditions: E. coli KNK 437; BHI agar; unit assumed
# ESCHERICHIA COLI H560 = assay: In vitro antibacterial activity, MIC, BHI agar dilution; conditions: E. coli H560, unit assumed
# [2] = system: STREPTOCOCCUS BOVIS A-5169; assay: as above; conditions: S. bovis A-5169, unit assumed
# [3] = system: PSEUDOMONAS AERUGINOSA K799/WT; assay: as above; conditions: P. aeruginosa K799/WT, unit assumed
# [4] = system: PSEUDOMONAS AERUGINOSA DPHD-2862; assay: as above; conditions: P. aeruginosa DPHD-2862, unit assumed
# [5] = system: STREPTOCOCCUS PYOGENES PIU 2548; assay: as above; conditions: S. pyogenes PIU 2548, unit assumed
# [6] = system: PSEUDOMONAS AERUGINOSA 5007; assay: as above; conditions: P. aeruginosa 5007, unit assumed
# [7] = system: STAPHYLOCOCCUS EPIDERMIDIS 3519; conditions: S. epidermidis 3519; BHI agar; unit assumed
# ESCHERICHIA COLI SS = assay: In vitro antibacterial activity, MIC, BHI agar dilution; conditions: E. coli SS, unit assumed
# CANDIDA ALBICANS CCH 442 = assay: as above; conditions: C. albicans CCH 442, unit assumed
# [8] = system: STAPHYLOCOCCUS AUREUS ATCC 6538P; assay: as above; conditions: S. aureus ATCC 6538P, 35-37° C., 20 to 24 hours, unit assumed
# PSEUDOMONAS CEPACIA 296I = assay: as above; conditions: P. cepacia 296I, unit assumed
# [9] = system: ENTEROBACTER AEROGENES ATCC 13048; assay: as above; conditions: E. aerogenes ATCC 13048, unit assumed
# [10] = system: PSEUDOMONAS AERUGINOSA DPHD-5263; assay: as above; conditions: P. aeruginosa DPHD-5263, unit assumed
# [11] = system: STAPHYLOCOCCUS AUREUS 1775; assay: as above; conditions: S. aureus 1775, unit assumed
# [12] = system: STAPHYLOCOCCUS AUREUS A-5278; assay: as above; conditions: S. aureus A-5278, unit assumed
# [13] = system: STAPHYLOCOCCUS AUREUS CMX 642A; assay: as above; conditions: S. aureus CMX 642A, unit assumed
# [14] = system: STREPTOCOCCUS PYOGENES EES61; assay: as above; conditions: S. pyogenes EES61, unit assumed
# ESCHERICHIA COLI DC-2 = assay: as above; conditions: E. coli DC-2, unit assumed
# [15] = system: PROVIDENCIA STUARTII CMX 640; conditions: P. stuartii CMX 640; BHI agar; unit assumed
# [16] = system: MYCOBACTERIUM SMEGMATIS ATCC 114; assay: In vitro antibacterial activity, MIC, BHI agar dilution; conditions: M. smegmatis ATCC 114, unit assumed
# [17] = system: STAPHYLOCOCCUS AUREUS A5177; assay: as above; conditions: S. aureus A5177, unit assumed
# [18] = system: STAPHYLOCOCCUS AUREUS NCTC10649M; assay: as above; conditions: S. aureus NCTC10649M, unit assumed
# [19] = system: STREPTOCOCCUS PYOGENES 930; assay: as above; conditions: S. pyogenes 930, unit assumed
# EN[…] ATCC 8043 = assay: as above; conditions: E. faecium ATCC 8043, unit assumed
# How it was run: (§1)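 MIC was read visually as the lowest drug level with no growth, a slight haze or sparsely isolated colonies relative to a compound-free growth control. Organisms were spotted at 1:100 dilution (1:10 for slow-growing strains) onto Brain Heart Infusion agar containing serial compound dilutions and incubated 20 to 24 hours at 35-37° C.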
# M[…] ATCC 4698 = assay: as above; conditions: M. luteus ATCC 4698, unit assumed
# How it was run: as §1
# STR[…] 508 = assay: as above; conditions: S. agalactiae CMX 508, unit assumed
# How it was run: as §1
# M[…] ATCC 9341 = assay: as above; conditions: M. luteus ATCC 9341, unit assumed
# How it was run: as §1
# ESCHERICHIA COLI JUHL = conditions: E. coli JUHL; BHI agar; unit assumed
# [20] = system: KLEBSIELLA PNEUMONIAE ATCC 8045; assay: In vitro antibacterial activity, MIC, BHI agar dilution; conditions: K. pneumoniae ATCC 8045, unit assumed
# [21] = system: PSEUDOMONAS AERUGINOSA BMH10; assay: as above; conditions: P. aeruginosa BMH10, unit assumed
# [22] = system: PSEUDOMONAS AERUGINOSA K799/61; assay: as above; conditions: P. aeruginosa K799/61, unit assumed
Structure (SMILES),MIC [1],MIC (ESCHERICHIA COLI KNK 437),MIC (ESCHERICHIA COLI H560),MIC [2],MIC [3],MIC [4],MIC [5],MIC [6],MIC [7],MIC (ESCHERICHIA COLI SS),MIC (CANDIDA ALBICANS CCH 442),MIC [8],MIC (PSEUDOMONAS CEPACIA 296I),MIC [9],MIC [10],MIC [11],MIC [12],MIC [13],MIC (ESCHERICHIA COLI DC-2),MIC [15],also measured
CC[C@H]1OC(=O)[C@H](C)C(=O)[C@H](C)[C@@H](O[C@@H]2O[C@H](C)C[C@H](N(C)C)[C@H]2O)[C@](C)(OC)C[C@@H](C)C2=N[C@@H](C)[C@H](C)N3C(=O)O[C@@]1(C)[C@H]3[C@H]2C [Example 11],0.39 µg/mL,25 µg/mL,6.2 µg/mL,0.01 µg/mL,> 100 µg/mL,> 100 µg/mL,0.39 µg/mL,> 100 µg/mL,0.39 µg/mL,0.39 µg/mL,> 100 µg/mL,0.39 µg/mL,> 100 µg/mL,25 µg/mL,> 100 µg/mL,> 100 µg/mL,> 100 µg/mL,0.39 µg/mL,25 µg/mL,> 100 µg/mL,MIC [14]: 0.005 µg/mL; MIC [16]: 6.2 µg/mL; MIC [17]: 0.39 µg/mL; MIC [18]: 0.39 µg/mL; MIC [19]: > 100 µg/mL; MIC (EN[…] ATCC 8043): 0.1 µg/mL; MIC (M[…] ATCC 4698): 0.39 µg/mL; MIC (STR[…] 508): 0.05 µg/mL; MIC (M[…] ATCC 9341): 0.2 µg/mL; MIC (ESCHERICHIA COLI JUHL): 25 µg/mL; MIC [20]: 12.5 µg/mL; MIC [21]: > 100 µg/mL
CC[C@H]1OC(=O)[C@H](C)C(=O)[C@H](C)[C@@H](O[C@@H]2O[C@H](C)C[C@H](N(C)C)[C@H]2O)[C@](C)(OC)C[C@@H](C)C2=N[C@@H]3CN(CCc4ccccc4)C[C@@H]3N3C(=O)O[C@@]1(C)[C@H]3[C@H]2C [Example 23],0.2 µg/mL,25 µg/mL,6.2 µg/mL,≤ 0.005 µg/mL,100 µg/mL,> 100 µg/mL,0.78 µg/mL,> 100 µg/mL,0.78 µg/mL,0.05 µg/mL,> 100 µg/mL,0.2 µg/mL,100 µg/mL,100 µg/mL,> 100 µg/mL,> 100 µg/mL,> 100 µg/mL,0.2 µg/mL,12.5 µg/mL,> 100 µg/mL,MIC [14]: ≤ 0.005 µg/mL; MIC [16]: 0.39 µg/mL; MIC [17]: 0.2 µg/mL; MIC [18]: 0.2 µg/mL; MIC [19]: > 100 µg/mL; MIC (EN[…] ATCC 8043): 0.05 µg/mL; MIC (M[…] ATCC 4698): 0.2 µg/mL; MIC (STR[…] 508): ≤ 0.005 µg/mL; MIC (M[…] ATCC 9341): 0.05 µg/mL; MIC [22]: 0.2 µg/mL; MIC (ESCHERICHIA COLI JUHL): 50 µg/mL; MIC [20]: 100 µg/mL; MIC [21]: > 100 µg/mL
CC[C@H]1OC(=O)[C@H](C)C(=O)[C@H](C)[C@@H](O[C@@H]2O[C@H](C)C[C@H](N(C)C)[C@H]2O)[C@](C)(OC)C[C@@H](C)C2=N[C@H](CO)CN3C(=O)O[C@@]1(C)[C@H]3[C@H]2C [Example 52],0.78 µg/mL,100 µg/mL,50 µg/mL,0.05 µg/mL,> 100 µg/mL,> 100 µg/mL,1.56 µg/mL,> 100 µg/mL,0.78 µg/mL,0.39 µg/mL,> 100 µg/mL,0.78 µg/mL,> 100 µg/mL,> 100 µg/mL,> 100 µg/mL,> 100 µg/mL,> 100 µg/mL,0.78 µg/mL,100 µg/mL,> 100 µg/mL,MIC [14]: 0.05 µg/mL; MIC [16]: 12.5 µg/mL; MIC [17]: 0.78 µg/mL; MIC [18]: 0.78 µg/mL; MIC [19]: > 100 µg/mL; MIC (EN[…] ATCC 8043): 0.2 µg/mL; MIC (M[…] ATCC 4698): 0.39 µg/mL; MIC (STR[…] 508): 0.05 µg/mL; MIC (M[…] ATCC 9341): 0.1 µg/mL; MIC [22]: 1.56 µg/mL; MIC (ESCHERICHIA COLI JUHL): 100 µg/mL; MIC [20]: > 100 µg/mL; MIC [21]: > 100 µg/mL
CC[C@H]1OC(=O)[C@H](C)C(=O)[C@H](C)[C@@H](O[C@@H]2O[C@H](C)C[C@H](N(C)C)[C@H]2O)[C@](C)(OC)C[C@@H](C)C2=NC[C@H](CSCc3ccccc3)N3C(=O)O[C@@]1(C)[C@H]3[C@H]2C [Example 66],0.2 µg/mL,25 µg/mL,12.5 µg/mL,0.01 µg/mL,100 µg/mL,> 100 µg/mL,0.39 µg/mL,> 100 µg/mL,0.2 µg/mL,0.39 µg/mL,> 100 µg/mL,0.1 µg/mL,100 µg/mL,> 100 µg/mL,100 µg/mL,> 100 µg/mL,> 100 µg/mL,0.2 µg/mL,12.5 µg/mL,> 100 µg/mL,MIC [14]: 0.01 µg/mL; MIC [16]: 0.39 µg/mL; MIC [17]: 0.1 µg/mL; MIC [18]: 0.1 µg/mL; MIC [19]: > 100 µg/mL; MIC (EN[…] ATCC 8043): 0.02 µg/mL; MIC (M[…] ATCC 4698): 0.2 µg/mL; MIC (STR[…] 508): 0.01 µg/mL; MIC (M[…] ATCC 9341): 0.02 µg/mL; MIC [22]: 0.39 µg/mL; MIC (ESCHERICHIA COLI JUHL): 25 µg/mL; MIC [20]: > 100 µg/mL; MIC [21]: 100 µg/mL
CC[C@H]1OC(=O)[C@H](C)C(=O)[C@H](C)[C@@H](O[C@@H]2O[C@H](C)C[C@H](N(C)C)[C@H]2O)[C@](C)(OC)C[C@@H](C)C2=NC[C@H](Cc3cscn3)N3C(=O)O[C@@]1(C)[C@H]3[C@H]2C [Example 69],0.2 µg/mL,> 100 µg/mL,50 µg/mL,0.01 µg/mL,> 100 µg/mL,> 100 µg/mL,0.39 µg/mL,> 100 µg/mL,0.2 µg/mL,0.39 µg/mL,> 100 µg/mL,0.2 µg/mL,> 100 µg/mL,> 100 µg/mL,> 100 µg/mL,> 100 µg/mL,> 100 µg/mL,0.39 µg/mL,50 µg/mL,> 100 µg/mL,MIC [14]: 0.02 µg/mL; MIC [16]: 3.1 µg/mL; MIC [17]: 0.2 µg/mL; MIC [18]: 0.2 µg/mL; MIC [19]: > 100 µg/mL; MIC (EN[…] ATCC 8043): 0.1 µg/mL; MIC (M[…] ATCC 4698): 0.2 µg/mL; MIC (STR[…] 508): 0.02 µg/mL; MIC (M[…] ATCC 9341): 0.05 µg/mL; MIC [22]: 0.78 µg/mL; MIC (ESCHERICHIA COLI JUHL): 100 µg/mL; MIC [20]: > 100 µg/mL; MIC [21]: > 100 µg/mL
C=CCN1CC2N=C3[C@H](C)C[C@@](C)(OC)[C@H](O[C@@H]4O[C@H](C)C[C@H](N(C)C)[C@H]4O)[C@@H](C)C(=O)[C@@H](C)C(=O)O[C@H](CC)[C@@]4(C)OC(=O)N(C2C1)[C@@H]4[C@H]3C (stereo partly shown) [Example 116],0.78 µg/mL,> 100 µg/mL,50 µg/mL,≤ 0.005 µg/mL,> 100 µg/mL,> 100 µg/mL,0.78 µg/mL,> 100 µg/mL,0.78 µg/mL,0.39 µg/mL,> 100 µg/mL,0.78 µg/mL,> 100 µg/mL,> 100 µg/mL,> 100 µg/mL,> 100 µg/mL,> 100 µg/mL,0.78 µg/mL,100 µg/mL,> 100 µg/mL,MIC [16]: 1.56 µg/mL; MIC [17]: 0.78 µg/mL; MIC [18]: 0.39 µg/mL; MIC [19]: > 100 µg/mL; MIC (EN[…] ATCC 8043): 0.2 µg/mL; MIC (M[…] ATCC 4698): 0.39 µg/mL; MIC (STR[…] 508): 0.05 µg/mL; MIC (M[…] ATCC 9341): 0.2 µg/mL; MIC [22]: 3.1 µg/mL; MIC (ESCHERICHIA COLI JUHL): 50 µg/mL; MIC [20]: > 100 µg/mL; MIC [21]: 100 µg/mL
